Results published in US20120220581A1, “IMIDAZO[1,2-b]PYRIDAZINE DERIVATIVES AND THEIR USE AS PDE10 INHIBITORS” (Janssen-Cilag, S.A., priority 2009, published 2012).

What was measured:
[1] = molecular target: T1, Rat recombinant PDE10A (rPDE10A2) (Rattus norvegicus, UniProt Q9QYJ6); assay: In vitro assay PDE10A (SPA, 3H-cAMP); format: biochemical; conditions: pIC50 corresponds to the −log IC50 expressed in mol/L; read-out: PDE10A2 pIC50 (converted)
T1 construct: inferred from the Ni metal chelate purification; made in house; host or cells: Sf9 insect cells (baculovirus)
T1 sequence (Q9QYJ6 1-794): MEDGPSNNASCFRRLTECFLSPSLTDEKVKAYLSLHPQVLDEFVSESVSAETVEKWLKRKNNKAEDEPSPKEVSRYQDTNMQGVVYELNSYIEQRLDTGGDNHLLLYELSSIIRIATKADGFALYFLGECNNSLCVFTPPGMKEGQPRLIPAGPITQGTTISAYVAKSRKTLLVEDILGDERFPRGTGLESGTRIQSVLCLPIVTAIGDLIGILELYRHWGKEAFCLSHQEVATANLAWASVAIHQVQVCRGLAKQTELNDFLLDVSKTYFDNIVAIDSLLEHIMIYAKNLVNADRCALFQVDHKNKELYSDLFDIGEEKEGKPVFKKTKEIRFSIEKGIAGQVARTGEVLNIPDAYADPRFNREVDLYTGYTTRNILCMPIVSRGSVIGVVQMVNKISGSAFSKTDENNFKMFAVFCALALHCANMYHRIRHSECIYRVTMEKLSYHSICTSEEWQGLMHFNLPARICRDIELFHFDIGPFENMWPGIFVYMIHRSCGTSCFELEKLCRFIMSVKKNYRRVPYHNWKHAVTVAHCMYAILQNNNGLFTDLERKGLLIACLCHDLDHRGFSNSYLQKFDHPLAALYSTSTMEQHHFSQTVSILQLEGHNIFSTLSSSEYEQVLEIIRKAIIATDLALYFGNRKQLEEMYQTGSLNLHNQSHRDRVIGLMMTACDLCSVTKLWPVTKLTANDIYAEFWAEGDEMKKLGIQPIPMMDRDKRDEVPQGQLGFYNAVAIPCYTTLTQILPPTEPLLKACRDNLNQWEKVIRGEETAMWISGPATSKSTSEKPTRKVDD
Procedure: Rat recombinant PDE10A (rPDE10A2) was expressed in Sf9 cells using a recombinant rPDE10A baculovirus construct. Cells were harvested after 48 h of infection and the rPDE10A protein was purified by metal chelate chromatography on Ni-sepharose 6FF. Tested compounds were dissolved and diluted in 100% DMSO to a concentration 100 fold of the final concentration in the assay. Compound dilutions (0.4 μl) were added in 384 well plates to 20 μl of incubation buffer (50 mM Tris pH 7.8, 8.3 mM MgCl2, 1.7 mM EGTA). 10 μl of rPDE10A enzyme in incubation buffer was added and the reaction was started by addition of 10 μl substrate to a final concentration of 60 nM cAMP and 0.008 μCi ^3H-cAMP. The reaction was incubated for 60 minutes at room temperature. […] After sedimentation of the beads during 30 minutes the radioactivity was measured in a Perkin Elmer Topcount scintillation counter and results were expressed as cpm. For blanc values the enzyme was omitted from the reaction and replaced by incubation buffer. Control values were obtained by addition of a final concentration of 1% DMSO instead of compound. The same assay principle is applied for the measurement of the affinity of the compound for other members of the PDE family with appropriate modifications in incubation buffer, substrate concentration, incubation time and stop solution.

[2] = test system: apomorphine-induced stereotypy in rats; assay: Apomorphine-induced stereotypy in rats (APO); format: in vivo; conditions: Rattus norvegicus, n.d.: found not active at threshold dose 2.5 mg/kg or 10 mg/kg (a)
Procedure: Apomorphine (1.0 mg/kg, i.v.)-induced stereotypy (compulsive sniffing, licking, chewing) was scored every 5 min over the first hour after injection of apomorphine, following a 1 hour interval pre-treatment with the test compound. The score system was: (3) pronounced, (2) moderate, (1) slight, and (0) absent.

SMILES	IC50 [1]	ED50 ([2]; not further tested)	ED50 ([2]; po, * not soluble, tested orally as a suspension)
COCCOc1ccc(-c2c(C)nc3c(-c4ccncc4)cc(C)nn23)cn1 [compound 49, 3-[6-(2-methoxyethoxy)-3-pyridinyl]-2,6-dimethyl-8-(4-pyridinyl)-imidazo[1,2-b]pyridazine]	209 nM	> 2.5 mg/kg	
COC(C)(C)Cc1ccc(-c2c(C3CC3)nc3c(-c4ccncc4)cc(C)nn23)cn1 [compound 55, 2-cyclopropyl-3-[6-(2-methoxy-2-methylpropyl)-3-pyridinyl]-6-methyl-8-(4-pyridinyl)-imidazo[1,2-b]pyridazine]	38 nM	> 2.5 mg/kg	
COCCc1ccc(-c2c(C3CC3)nc3c(-c4ccncc4)cc(C)nn23)cn1 [compound 56, 2-cyclopropyl-3-[6-(2-methoxyethyl)-3-pyridinyl]-6-methyl-8-(4-pyridinyl)-imidazo[1,2-b]pyridazine]	51.3 nM	> 2.5 mg/kg	
COCCOc1ccc(-c2c(C)nc3c(-c4ccncc4)cc(C4CC4)nn23)cn1 [compound 59, 6-cyclopropyl-3-[6-(2-methoxyethoxy)-3-pyridinyl]-2-methyl-8-(4-pyridinyl)-imidazo[1,2-b]pyridazine]	234 nM	> 2.5 mg/kg	
COC(C)(C)Cc1ccc(-c2cnc3c(-c4ccncc4)ccnn23)cn1 [compound 60, 3-[6-(2-methoxy-2-methylpropyl)-3-pyridinyl]-8-(4-pyridinyl)-imidazo[1,2-b]pyridazine]	191 nM	> 2.5 mg/kg	
Cc1cc(-c2ccncc2)c2nc(C)c(-c3ccc(N4CCOCC4)nc3)n2n1 [compound 70, 2,6-dimethyl-3-[6-(4-morpholinyl)-3-pyridinyl]-8-(4-pyridinyl)-imidazo[1,2-b]pyridazine]	126 nM	> 2.5 mg/kg	
Cc1nc2c(N3CCOCC3)ccnn2c1-c1ccc(CCOC(C)C)nc1 [compound 76, 2-methyl-3-[6-[2-(1-methylethoxy)ethyl]-3-pyridinyl]-8-(4-morpholinyl)-imidazo[1,2-b]pyridazine]	50.1 nM	> 2.5 mg/kg	
Cc1nc2c(N3CCOCC3)ccnn2c1-c1ccc(CCN2CCCC2)nc1 [compound 77, 2-methyl-8-(4-morpholinyl)-3-[6-[2-(1-pyrrolidinyl)ethyl]-3-pyridinyl]-imidazo[1,2-b]pyridazine]	129 nM	> 2.5 mg/kg	
CCc1ccc(-c2c(C)nc3c(-c4ccncc4)cc(C4CC4)nn23)cn1 [compound 86, 6-cyclopropyl-3-(6-ethyl-3-pyridinyl)-2-methyl-8-(4-pyridinyl)-imidazo[1,2-b]pyridazine]	263 nM	> 2.5 mg/kg	
CCc1ccc(-c2c(C3CC3)nc3c(-c4ccncc4)ccnn23)cn1 [compound 87, 2-cyclopropyl-3-(6-ethyl-3-pyridinyl)-8-(4-pyridinyl)-imidazo[1,2-b]pyridazine]	21.9 nM	> 2.5 mg/kg	

Further lines, with some results ahead:

IC50 [1]	SMILES	ED50 ([2]; not further tested)	ED50 ([2]; po, * not soluble, tested orally as a suspension)
50.1 nM	COC(C)(C)Cc1ccc(-c2c(C3CC3)nc3c(N4CCOCC4)ccnn23)cn1 [compound 45, 2-cyclopropyl-3-[6-(2-methoxy-2-methylpropyl)-3-pyridinyl]-8-(4-morpholinyl)-imidazo[1,2-b]pyridazine]	> 2.5 mg/kg	
17.4 nM	c1cc(-c2ccnn3c(-c4ccc(N5CCOCC5)nc4)c(C4CC4)nc23)ccn1 [compound 46, 2-cyclopropyl-3-[6-(4-morpholinyl)-3-pyridinyl]-8-(4-pyridinyl)-imidazo[1,2-b]pyridazine]	> 2.5 mg/kg	
91.2 nM	COC(C)(C)Cc1ccc(-c2c(C)nc3c(N4CCOCC4)cc(C)nn23)cn1 [compound 47, 3-[6-(2-methoxy-2-methylpropyl)-3-pyridinyl]-2,6-dimethyl-8-(4-morpholinyl)-imidazo[1,2-b]pyridazine]	> 2.5 mg/kg	
105 nM	COC(C)(C)Cc1ccc(-c2cnc3c(N4CCOCC4)ccnn23)cn1 [compound 51, 3-[6-(2-methoxy-2-methylpropyl)-3-pyridinyl]-8-(4-morpholinyl)-imidazo[1,2-b]pyridazine]	> 2.5 mg/kg	
468 nM	COCCOc1ccc(-c2cnc3c(N4CCOCC4)ccnn23)cn1 [compound 52, 3-[6-(2-methoxyethoxy)-3-pyridinyl]-8-(4-morpholinyl)-imidazo[1,2-b]pyridazine]	> 2.5 mg/kg	
214 nM	COC(C)(C)Cc1ccc(-c2c(C3CC3)nc3c(N4CCOCC4)cc(C)nn23)cn1 [compound 53, 2-cyclopropyl-3-[6-(2-methoxy-2-methylpropyl)-3-pyridinyl]-6-methyl-8-(4-morpholinyl)-imidazo[1,2-b]pyridazine]	> 2.5 mg/kg	
186 nM	Cc1nc2c(-c3ccncc3)cc(C3CC3)nn2c1-c1ccc(N2CCOCC2)nc1 [compound 58, 6-cyclopropyl-2-methyl-3-[6-(4-morpholinyl)-3-pyridinyl]-8-(4-pyridinyl)-imidazo[1,2-b]pyridazine]	> 2.5 mg/kg	
479 nM	COCCc1ccc(-c2c(C)nc3c(N4CCOCC4)cc(C(F)(F)F)nn23)cn1 [compound 64, 3-[6-(2-methoxyethyl)-3-pyridinyl]-2-methyl-8-(4-morpholinyl)-6-(trifluoromethyl)-imidazo[1,2-b]pyridazine]		> 2.5 mg/kg
324 nM	COCCOc1ccc(-c2c(C)nc3c(N4CCOCC4)cc(C)nn23)cn1 [compound 69, 3-[6-(2-methoxyethoxy)-3-pyridinyl]-2,6-dimethyl-8-(4-morpholinyl)-imidazo[1,2-b]pyridazine]	> 2.5 mg/kg	
97.7 nM	COCCOc1ccc(-c2c(C3CC3)nc3c(N4CCOCC4)ccnn23)cn1 [compound 73, 2-cyclopropyl-3-[6-(2-methoxyethoxy)-3-pyridinyl]-8-(4-morpholinyl)-imidazo[1,2-b]pyridazine]	> 2.5 mg/kg	
123 nM	Cc1nc2c(N3CCOCC3)cc(C3CC3)nn2c1-c1ccc(C2CCOCC2)nc1 [compound 78, 6-cyclopropyl-2-methyl-8-(4-morpholinyl)-3-[6-(tetrahydro-2H-pyran-4-yl)-3-pyridinyl]-imidazo[1,2-b]pyridazine]	> 2.5 mg/kg	
263 nM	Cc1cc(N2CCOCC2)c2nc(C3CC3)c(-c3ccc(C4CCOCC4)nc3)n2n1 [compound 79, 2-cyclopropyl-6-methyl-8-(4-morpholinyl)-3-[6-(tetrahydro-2H-pyran-4-yl)-3-pyridinyl]-imidazo[1,2-b]pyridazine]	> 2.5 mg/kg	
44.7 nM	Cc1cc(-c2ccncc2)c2nc(C3CC3)c(-c3ccc(C4CCOCC4)nc3)n2n1 [compound 80, 2-cyclopropyl-6-methyl-8-(4-pyridinyl)-3-[6-(tetrahydro-2H-pyran-4-yl)-3-pyridinyl]-imidazo[1,2-b]pyridazine]	> 2.5 mg/kg	
195 nM	Cc1nc2c(-c3ccncc3)cc(C3CC3)nn2c1-c1ccc(C2CCOCC2)nc1 [compound 81, 6-cyclopropyl-2-methyl-8-(4-pyridinyl)-3-[6-(tetrahydro-2H-pyran-4-yl)-3-pyridinyl]-imidazo[1,2-b]pyridazine]	> 2.5 mg/kg	
145 nM	c1cc(N2CCOCC2)c2ncc(-c3ccc(C4CCOCC4)nc3)n2n1 [compound 82, 8-(4-morpholinyl)-3-[6-(tetrahydro-2H-pyran-4-yl)-3-pyridinyl]-imidazo[1,2-b]pyridazine]	> 2.5 mg/kg	
51.3 nM	CCc1ccc(-c2c(C)nc3c(-c4ccncc4)ccnn23)cn1 [compound 83, 3-(6-ethyl-3-pyridinyl)-2-methyl-8-(4-pyridinyl)-imidazo[1,2-b]pyridazine]	> 2.5 mg/kg	
